In series [1] the test system is C57Bl/6J mice. In words: Carboplatin induced thrombocytopenia model (CIT), CBC and bone marrow flow cytometry. The class given is in vivo, mouse. The text has this:
Chemotherapy induced thrombocytopenia (CIT) was a major disease burden in cancer patients undergoing chemotherapy. CIT increases the risk of bleeding resulting in delay of chemotherapy and/or reduction in relative dose intensity (RDI), which has a major impact in overall outcomes to cancer treatment. Currently, there were no approved treatments besides platelet transfusions in severe CIT cases. Thrombopoietin (TPO) mimetics, such romiplostim, were being investigated as a possible new treatment to address CIT. Based on the ability to modulate megakaryocyte progenitors in vitro and healthy animals, murine models that replicate CIT were developed (Table 19.) To this end, the following chemotherapeutic compounds known to induced myelosuppression and thrombocytopenia in mouse and humans were selected to develop CIT models:
Carboplatin a cisplatin analog commonly used in the clinic to treat a diverse type of malignant tumors. Carboplatin works by cross-linking to DNA resulting in DNA damage and decreased tumor burden. In addition, carboplatin also leads to bone marrow myelosuppression including transient thrombocytopenia in both human and mice.
Healthy C57Bl/6J mice were treated with a single dose of carboplatin via intraperitoneal injection (60 or 100 mg/kg) (FIG. 16A). Complete blood count (CBC), specifically changes in platelet number were measured using a blood analyzer (Heska HT5) at baseline Day 0 (baseline), Day 9, Day 16 and Day 21. In addition, bone marrowwas harvested at 24 hrs, 48 hrs, 9 days and 21 days post-carboplatin injection to characterize changes in the hematopoietic stem cells compartment, and changes in megakaryocyte compartment. […] Analysis of the bone marrow hematopoietic compartments was performed using flow cytometry as described in Example 14.
A general note: A flow cytometer gives signals particle by particle.

Series [2] deals with sickle cell patient. Particulars: sickle cell patient treated with hydroxyurea; Mundee et al.; cited from earlier work.
Where [3] appears, read: single intraperitoneal dose, 60 or 100 mg/kg, day post-injection.

The structures appear in SMILES notation.

Here are results for two molecules from patent US20240360411A1, “METHODS AND COMPOSITIONS FOR INDUCING FETAL HEMOGLOBIN, MODULATING ERYTHROID CELL LINEAGES, AND PERTURBING MEGAKARYOCYTE LINEAGES” (FLAGSHIP PIONEERING INNOVATIONS VI, LLC, priority 2021, published 2024).

In the case of `N.N.O=C([O-])C1(C(=O)[O-])CCC1.[Pt+2]` [carboplatin], in series [1] (flow cytometry 24 hrs, 48 hrs, 9 days, 21 days post-carboplatin injection, FIG. 17A, 17B), the “bone marrow hematopoietic compartments (early Mkps, mature megakaryocytes)” value was “dynamic loss and recovery of distinct populations”. Moreover, in series [1] (single intraperitoneal dose, 60 or 100 mg/kg), the tolerability result is “tolerated the treatment”. The “blood platelets (change in platelet number)” value in series [1] (single intraperitoneal dose, 60 or 100 mg/kg, FIG. 16B) is given as “decrease of blood platelets in a dose dependent manner”. In series [1] (setting [3]), the “full recovery of platelet number” value is ≤ 21 days and the “nadir of blood platelets” value turned out to be 9 days.

In the case of `NC(=O)NO` [hydroxyurea], in series [2], the “mean % F+ cells” value is 54.1%±8.5% and the “mean % HbF” value is recorded as 15.8%±2.0%.
